Measurements as given in patent publication EP3250181B1, “MINOXIDIL-BASED PHARMACEUTICAL FORMULATION FOR THE TOPICAL USE AND KIT THEREOF” (Farmalabor S.r.l., priority 2014, dated 2016).

Tests used:
[1] = Stability, first study: real storage conditions, HPLC; details: formulation A, room temperature, both in the presence and in the absence of light
[2] = Stability, second study: cold-warm cycle in climate room for 60 hours; details: formulation A, 4°C/25°C/40°C cycle, dark or UV/Vis light

## Nc1cc(N2CCCCC2)nc(N)[n+]1[O-] [Minoxidil]
[1]
  stability of Minoxidil in the gel: stable in the gel for 5 weeks
[2]
  chemical stability after cold-heat shock: chemical stability of Minoxidil into the gel also after a cold-heat shock
